These results are taken from US20030104473A1, “Common ligand mimics: benzimidazoles” (priority 2001, published 2003).

Assay [1] deals with 1-deoxy-D-xylulose-5-phosphate reductase (DOXPR) (Escherichia coli, UniProt P45568). Kind of assay: DOXPR kinetic assay, spectrophotometric oxidation of NADPH at 340 nm. It is filed as biochemical. The protocol:
For DOXPR analysis, the compounds were screened using a kinetic protocol that spectrophotometrically evaluates oxidation of NADPH.
Stock solutions of each of the reagents were prepared in the following concentrations. Dilutions of the stock solutions were prepared prior to running the assay in the concentrations indicated below. DOXPR was diluted in 10 mM HEPES at a pH of 7.4.
The DOXPR reaction was monitored at 340 nm prior to and after addition of the inhibitor to detect background reaction with the inhibitor. Solutions of the inhibitors in DMSO were prepared to provide a final DMSO concentration of 5% of the total assay volume. These solutions were incubated for 6 minutes at 25° C. in a 990 μl of a solution containing 0.1 M HEPES, pH 7.4, 1 mM MnCl21.15 mM DOXP, and 8 μM NADPH. The oxidation reaction was then initiated with 10 μl of DOXP reductoisomerase (10 μg/ml). After the enzyme was added, the solution was mixed for 20 seconds, and the reaction was run for 10 minutes. After a 50 second lag, the samples were read in a Cary spectrophotometer at 340 nm. Reading of the samples was continued until 300 seconds. Cuvette #1 contained the control reaction (no inhibitor), and cuvette #2 contained the positive control reaction in which Cibacron Blue at 10.32 μM was substituted for inhibitor to yield 70 to 80% inhibition. The substrate was kept at a level at least 10 times the Km.

Assay [2] has as its target glyceraldehyde-3-phosphate dehydrogenase (GAPDH) (Escherichia coli, UniProt P0A9B2). Kind of assay: GAPDH kinetic assay, spectrophotometric reduction of NAD+ at 340 nm. The class given is biochemical, E. coli. The protocol: For GAPDH analysis, the compounds were screened using a kinetic protocol that spectrophotometrically evaluates reduction of NAD+.
(§1) Stock solutions of each of the reagents were prepared in the following concentrations. Dilutions of the stock solutions were prepared prior to running the assay in the concentrations indicated below.
The GAPDH reaction was monitored at 340 nm prior to and after addition of the inhibitor to detect background reaction with the inhibitor. Solutions of 100 μl of the inhibitors incubated for 6 minutes at 25° C. in a 990 μl of a solution containing 125 mM triethanolamine, pH 7.5, 145 μM glyceraldehyde 3-phosphate (GAP), 0.211 mM NAD, 5 mM sodium arsenate, and 3 mM β-metcaptoethanol (2-BME). The reaction was then initiated with 10 gl of E. coli GAPDH (1:200 dilution of 1.0 mg/ml). After the enzyme was added, the solution was mixed for 20 seconds, and the reaction was run for 10 minutes. After a 50 second lag, the samples were read in a Cary spectrophotometer at 340 nm. Reading of the samples was continued until 300 seconds. The final concentration of DMSO in a cuvette was about 5% of the total assay volume. Cuvette #1 contained the control reaction (no inhibitor).
GAP for use in this experiment was deprotected from the diethyl acetal in the following manner. Water was boiled in recrystallizing dish. […]

Assay [3] addresses inosine-5′-monophosphate dehydrogenase (IMPDH). Nature of the assay: IMPDH kinetic assay, spectrophotometric reduction of NAD+ at 340 nm. It is filed as biochemical. The settings on record: Example 13 oxidoreductase panel (FIG. 7). The method, then:
For IMPDH analysis, the compounds were screened using a kinetic protocol that spectrophotometrically evaluates reduction of NAD+.
as §1
The IMPDH reaction was monitored at 340 nm prior to and after addition of the inhibitor to detect background reaction with the inhibitor. Solutions of 100 μl of the inhibitors in DMSO were prepared to provide a final DMSO concentration of 5% of the total assay volume. These solutions were incubated for 6 minutes at 37° C. in a 992 μl of a solution containing 0.1 M Tris-HCl, pH 8.0, 0.25 M KCl, 0.3% glycerol, 30 μM NAD+, and 600 μM IMP (inosine monophosphate). The reaction was then initiated with 8 μl of IMPDH (0.75 μg/ml). After the enzyme was added, the solution was mixed for 20 seconds, and the reaction was run for 10 minutes. After a 50 second lag, the samples were read in a Cary spectrophotometer at 340 nm. Reading of the samples was continued until 300 seconds. Cuvette #1 contained the control reaction (no inhibitor), and cuvette #2 contained the positive control reaction in which Cibacron Blue was substituted for inhibitor. The substrate was kept at a level at least 10 times the Km.

pIC50: −log10 of the molar value. Where two headings read alike, the source gives them in different places.

glyceraldehyde-3-phosphate dehydrogenase (GAPDH), sequence (P0A9B2 whole entry): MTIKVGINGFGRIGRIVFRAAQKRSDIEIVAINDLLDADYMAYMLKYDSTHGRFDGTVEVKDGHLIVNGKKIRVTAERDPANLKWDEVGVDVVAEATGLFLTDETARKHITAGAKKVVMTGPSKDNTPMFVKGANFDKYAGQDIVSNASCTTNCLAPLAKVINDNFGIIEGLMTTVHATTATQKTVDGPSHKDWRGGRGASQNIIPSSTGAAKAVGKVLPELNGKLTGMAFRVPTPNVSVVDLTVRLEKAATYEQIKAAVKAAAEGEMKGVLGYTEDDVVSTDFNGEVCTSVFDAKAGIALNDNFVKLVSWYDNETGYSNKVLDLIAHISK
1-deoxy-D-xylulose-5-phosphate reductase (DOXPR), sequence (P45568 whole entry): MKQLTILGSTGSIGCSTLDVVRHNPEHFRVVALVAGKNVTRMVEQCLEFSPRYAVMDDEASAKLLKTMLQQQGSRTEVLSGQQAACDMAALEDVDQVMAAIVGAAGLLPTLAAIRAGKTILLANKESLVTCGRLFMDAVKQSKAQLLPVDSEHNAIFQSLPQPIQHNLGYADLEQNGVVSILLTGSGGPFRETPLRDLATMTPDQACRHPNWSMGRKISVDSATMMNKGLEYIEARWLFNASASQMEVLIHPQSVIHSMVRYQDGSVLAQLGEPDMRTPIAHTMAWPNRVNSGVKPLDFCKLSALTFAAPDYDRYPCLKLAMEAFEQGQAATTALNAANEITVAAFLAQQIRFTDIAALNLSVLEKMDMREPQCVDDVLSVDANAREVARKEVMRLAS

`O=C(O)c1ccc(-c2ccc(-c3nc4cc([N+](=O)[O-])ccc4[nH]3)o2)cc1` [compound 6d, 4-[5-(5-nitro-1H-benzoimidazol-2-yl)-furan-2-yl]-benzoic acid]: the results for the pIC50 in assay [1], in assay [2] and in assay [3] were 4.67, < 3.82 and 4.80, respectively.
Regarding `O=C(O)c1ccc(-c2ccc(-c3nc4ccccc4[nH]3)o2)cc1` [compound 6b, 4-[5-(1H-benzoimidazol-2-yl)-furan-2-yl] benzoic acid], the pIC50 is < 4.22 in assay [1] (Example 13 oxidoreductase panel (FIG. 7), read-out: IC50 for DOXPR); < 4.22 in assay [2] (Example 13 oxidoreductase panel (FIG. 7), read-out: IC50 for GAPDH); 4.66 in assay [3].

Usually pIC50 stands for the negative decadic logarithm of the IC50, by convention in mol/L.
